Data set [1] can be described thus: Pharmacokinetics of 5-MeO-DMT and bufotenine after inhalation. The data set is classed as in vivo, human.
For data set [2] the following is noted: rat; cited from earlier work.
The test system of a further data set is human hepatocytes. The data set can be described thus: Metabolic stability in Hμrel human hepatocyte co-culture assay. Conditions: for Metabolic turnover: human hepatocytes. The format is in vitro ADME.
In a further data set the test system is patients with PPD. As to conditions: cited from earlier work.
For the next data set, the system named is human plasma protein. The data set can be described thus: Plasma binding of 5-MIAA. The format is in vitro ADME. Conditions: estimated from fu and glomerular filtration rate 90-120 ml/min.

As for `CN(C)CCc1c[nH]c2ccc(O)cc12` [Bufotenine (5-OH-DMT), Bufotenine], the “Detection of bufotenine in human serum” value is on record as “In no case is it detected” in data set [1] (15 minutes after administration of 5-MeO-DMT) and “barely detected” in data set [1] (after administration of 5-MeO-DMT). In addition, the “Samples with bufotenine concentration above LLOQ (25 pg/ml)” value in data set [1] (after inhaled 5-MeO-DMT) is on record as “Only in few samples”.

As to `COc1ccc2[nH]cc(CC[N+](C)(C)[O-])c2c1` [5-MeO-DMT-N-oxide], in data set [2], the Excretion entry is listed as “rapid excretion”.

For the compound `COc1ccc2[nH]cc(CCO)c2c1` [5-Methoxyindole-3-ethanol], the “Relative LC/MS peak area remaining” value was determined as 97% in the data set on human hepatocytes (1 μM Stromal cells, 4 h); 107% in the data set with human hepatocytes (1 μM Stromal cells, 8 h); 94% in the data set with human hepatocytes (1 μM Stromal cells, 24 h); 102% with human hepatocytes (1 μM Stromal cells, 48 h); 104% with human hepatocytes (1 μM Stromal cells, 72 h); 99% in the data set with human hepatocytes (10 μM Stromal cells, 4 h). Further, the “Relative LC/MS peak area remaining” value is 105% in the data set with human hepatocytes (10 μM Stromal cells, 8 h); 86% with human hepatocytes (10 μM Stromal cells, 24 h); 98% with human hepatocytes (10 μM Stromal cells, 48 h); 104% with human hepatocytes (10 μM Stromal cells, 72 h). Besides, the Metabolic turnover entry in the data set on human hepatocytes was “high metabolic turnover”. Besides, in the data set with human hepatocytes, the “Disappearance with stromal cell controls” value is reported as “no disappearance”.

Turning to `CC(=O)[C@H]1CC[C@H]2[C@@H]3CC[C@H]4C[C@H](O)CC[C@]4(C)[C@H]3CC[C@]12C` [brexanolone], in the data set on patients with PPD (one phase 3 trial, 30 days after initiation of infusion), the HAM-D scores result is reported as “significantly reduced”. In the data set with patients with PPD (other phase 3 trial), the “Efficacy (HAM-D)” value is “failed to show efficacy beyond 7 days”.

For the compound “5-Methoxyindole acetic acid [5-Methoxyindole acetic acid (5-MIAA)]”, the “Time until removed from circulation for urinary excretion” value in the data set with human plasma protein is 1 to 2 h. Further, in the data set with human hepatocytes, the Metabolic turnover result is on record as “low metabolic turnover” and the “Disappearance with stromal cell controls” value is on record as “no disappearance”. In the data set with human hepatocytes (in the presence of hepatocytes, 1 and 10 μM), the “Remaining abundance after 72 h” value was 75-82%.

(Values after patent publication US20250205200A1, “5-METHOXY-N,N-[…][…] THE TREATMENT OF […]” (GH RESEARCH IRELAND LIMITED, priority 2022, published 2025).)
